4 compounds from US4952572A (priority 1989, dated 1990) can be followed below.

The subject of data set [1] is Moser cells. In words: In vitro cytotoxicity, neutral red. The data set is classed as cell-based, human.
For data set [2], the system named is Gram-negative organisms. Format: cell-based. The following applies: in words; relative to Gram-positive aerobic bacteria.
The test system of data set [3] is Gram-positive aerobic bacteria. The data set is classed as cell-based. The following applies: in words.
Data set [4] in a line: Solubility. The data set is classed as physicochemical.
Data set [5] in a line: Acute toxicity in mice, intramuscular. The data set is classed as in vivo. The following applies: 5 mg/kg.
The subject of data set [6] is Staphylococcus aureus Smith. The data set can be described thus: In vivo activity against S. aureus Smith infection (ip) in mice. The conditions noted are these: im, single. On the procedure:
Mice were challenged intraperitoneally with 100 times the lethal dose of the pathogen in a 5% suspension of hog gastric mucin (American Laboratory, Omaha, Neb.). BU-3420T was administered to mice intramuscularly just before the bacterial challenge.

For data set [7], the system named is murine and human tumor cell lines. In words: In vitro cytotoxicity, summary. The following applies: in words. On the procedure:
(§1) On the other hand, the cytotoxic activities against P388 and P388/VCR cells were determined by counting the number of viable cells.

Data set [8] deals with P388/VCR cells. In words: In vitro cytotoxicity, viable cell count. The following applies: in words. On the procedure: as §1
Data set [9] relates to Cryptococcus neoformans. The data set can be described thus: In vitro antifungal activity, summary. Format: cell-based. The following applies: relative to BU-3420T acetate.

In the case of `CO[C@@]12[C@H](COC(N)=O)C3=C(C(=O)C(C)=C(N)C3=O)N1C[C@@H]1N[C@@H]12` [Mitomycin C], the “resistance of Moser and HCT-116 relative to B16-F10” value in data set [1] (Moser and HCT-116 cells vs B16-F10) is “slightly more resistant”.
As usually defined, the IC50 is the concentration that gives 50% inhibition. Low readings indicate greater potency, high ones weaker potency. In the case of `COC1=C(C(=O)O)C(C)C23OC24c2cc(OC(C)=O)c5c(c2NC3C#C/C=C\C#CC14)C(=O)c1c(OC(C)=O)ccc(OC(C)=O)c1C5=O` (stereo not shown) [BU-3420T acetate], the “susceptibility of Gram-negative organisms” value in data set [2] is given as “a little less susceptible”. Moreover, in data set [3], the antibacterial activity result is reported as “intensely potent activity”. In data set [4] (in organic solvents such as chloroform, methanol and ethanol, relative to BU-3420T), the solubility entry is on record as “much improved solubility”. For the same compound, the IC50 in data set [1] (Homo sapiens, Moser, 72 hours) stood at 0.003 ng/mL.
As to `COC1=C(C(=O)O)C(C)C23OC24c2cc(O)c5c(c2NC3C#C/C=C\C#CC14)C(=O)c1c(O)ccc(O)c1C5=O` (stereo not shown) [BU-3420T], in data set [5], the toxicity entry is reported as “did not show any toxicity”. For the same compound, the “susceptibility of Gram-negative organisms” value in [2] was “a little less susceptible”. For the same compound, the No. of survivor/tested in data set [6] (0.01 mg/kg) and in data set [6] (0.04 mg/kg) was 0/5 throughout. Also, the cytotoxicity entry in data set [7] is “potent cytotoxicity”. For the same compound, in [3], the antibacterial activity result is reported as “intensely potent activity”. Further, the solubility entry in data set [4] (in chloroform, ethyl acetate, methanol and ethanol) is “slightly soluble”; in [4] (in dimethyl sulfoxide, dimethylformamide and dioxane), “soluble”; in data set [4] (in water and n-hexane), “insoluble”. For the same compound, the “cytotoxicity against VCR-sensitive vs resistant P388 cells” value in data set [8] is listed as “same cytotoxicities”.
`C[C@@H]1[C@H](O)[C@@H](C)/C=C/C=C/C=C/C=C/C=C/C=C/C=C/[C@H](O[C@@H]2O[C@H](C)[C@@H](O)[C@H](N)[C@@H]2O)C[C@@H]2O[C@](O)(C[C@@H](O)C[C@@H](O)[C@H](O)CC[C@@H](O)C[C@@H](O)CC(=O)O[C@H]1C)C[C@H](O)[C@H]2C(=O)O` [Amphotericin B]: the “susceptibility of Cryptococcus neoformans” value in [9] is listed as “more susceptible to amphotericin B”.
